Measured values from PMC3276566, “Specialized Peptidoglycan Hydrolases Sculpt the Intra-bacterial Niche of Predatory Bdellovibrio and Increase Population Fitness” (PLoS Pathogens, 2012).

Legend:
[1] = molecular target: T1, Bd3459 (Bdellovibrio bacteriovorus, UniProt Q6MHT0, A37M); assay: fluorescent labelling, SDS-PAGE, Typhoon fluorescence scan; type: binding; settings: covalent; labelled compound; 1.25 ug/ml Bocillin-FL, 75 ug/ml protein, 20 mM sodium phosphate pH 4.8, 10 min, 37 °C
T1 construct: E. coli BL21(DE3), modified pET41 (GST removed), Hi-Trap His column; about 46 kDa; likely monomer

[2] = molecular target: T2, Bd3459 (Bdellovibrio bacteriovorus, UniProt Q6MHT0, A37M/S70A); assay: as above; type: binding; settings: active-site serine mutant; labelled compound; 1.25 ug/ml Bocillin-FL, 75 ug/ml protein, 20 mM sodium phosphate pH 4.8, 10 min, 37 °C
T2 construct: E. coli BL21(DE3), modified pET41 (GST removed), Hi-Trap His column; about 46 kDa; likely monomer

[3] = molecular target: T1, Bd3459; assay: HPLC muropeptide analysis of digested pentapeptide-rich peptidoglycan; also competition with Bocillin-FL labelling; type: biochemical; settings: inhibitor pre-incubated at 0.4 mg/ml, 30 min, 37 °C; E. coli CS703-1 peptidoglycan, 20 mM sodium phosphate pH 4.8; labelling assay 2.5 ug/ml ampicillin

T1 sequence (Q6MHT0 entry or part of it A37M): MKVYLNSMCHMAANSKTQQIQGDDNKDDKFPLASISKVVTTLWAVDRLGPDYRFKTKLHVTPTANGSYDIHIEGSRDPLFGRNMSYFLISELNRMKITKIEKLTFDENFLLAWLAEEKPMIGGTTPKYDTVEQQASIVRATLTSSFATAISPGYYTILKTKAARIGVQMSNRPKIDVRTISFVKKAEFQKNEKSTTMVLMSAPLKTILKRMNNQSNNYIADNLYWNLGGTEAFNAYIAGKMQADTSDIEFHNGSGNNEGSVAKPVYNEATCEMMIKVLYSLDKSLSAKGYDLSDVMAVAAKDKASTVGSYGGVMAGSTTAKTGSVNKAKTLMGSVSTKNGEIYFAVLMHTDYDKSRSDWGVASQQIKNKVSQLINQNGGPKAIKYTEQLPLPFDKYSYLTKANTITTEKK
T2 sequence (Q6MHT0 entry or part of it A37M/S70A): as the sequence (Q6MHT0 entry or part of it A37M) above, with S34A counted along it

SMILES: Cc1cc(C)n2c1C=C1C=CC(CCC(=O)Nc3ccc(OCC(=O)N[C@@H]4C(=O)N5[C@@H]4SC(C)(C)[C@@H]5C(=O)O)cc3)=[N+]1[B-]2(F)F [Bocillin-FL]
- fluorescent labelling, SDS-PAGE, Typhoon fluorescence scan [1]: Bd3459 covalently bound the fluorescent beta-lactam Bocillin-FL
- fluorescent labelling, SDS-PAGE, Typhoon fluorescence scan [2]: Bd3459 (S70A) bound significantly less Bocillin-FL

SMILES: CC1(C)S[C@@H]2[C@H](NC(=O)[C@H](N)c3ccccc3)C(=O)N2[C@H]1C(=O)O [ampicillin]
- HPLC muropeptide analysis of digested pentapeptide-rich peptidoglycan; also comp [3]: The addition of the beta-lactam ampicillin inhibited the WT enzyme
